Tests used:
[1] = target: T1, PI3Kδ (Homo sapiens, UniProt O00329); assay: In vitro PI3K inhibition assay (ADP-Glo kinase assay), PI3Kδ; assay type: biochemical; settings: mean of two independent experiments
T1 construct: purchased Merck Millipore
Method: (§1) All compounds were tested in a biochemical assay that measured the inhibition of phosphatidylinositol […] production by PI3K isoforms using the ADP-Glo kinase assay (Promega). In addition, the effects of synthesized compounds on B cell proliferation were measured.
(§2) The potency and selectivity of compounds were assessed by measuring the ability of PI3K kinases to convert ATP to ADP during an enzymatic reaction in the presence of decreasing doses of tested compounds. The experiments were carried out using the ADP-Glo kinase assay kit (Promega), according to the manufacturer’s protocol. PI3Kα, PI3Kβ, PI3Kδ, and PI3Kγ have been purchased from Merck Millipore and phosphoinositol-4,5-bisphosphate (PIP2) lipid vesicles with phosphoserine from ThermoFisher Scientific were used as a substrate in the enzymatic reaction.
(§3) After the reaction, the ADP-Glo reagent and the kinase detection reagent were added sequentially with 40 min of incubation (25 °C, 600 rpm) after adding each reagent. Finally, the luminescence intensity was measured and the IC50 was calculated using GraphPad Prism 7 software. The presented results are the mean value of IC50 from at least two independent experiments.

[2] = target: T2, PI3Kγ (Homo sapiens, UniProt P48736); assay: In vitro PI3K inhibition assay (ADP-Glo kinase assay), PI3Kγ; assay type: biochemical; settings: for IC50: mean of two independent experiments; for Fold Selectivity γ/δ: ratio IC50 PI3Kγ / IC50 PI3Kδ
T2 construct: purchased Merck Millipore
T2 sequence (P48736 whole entry): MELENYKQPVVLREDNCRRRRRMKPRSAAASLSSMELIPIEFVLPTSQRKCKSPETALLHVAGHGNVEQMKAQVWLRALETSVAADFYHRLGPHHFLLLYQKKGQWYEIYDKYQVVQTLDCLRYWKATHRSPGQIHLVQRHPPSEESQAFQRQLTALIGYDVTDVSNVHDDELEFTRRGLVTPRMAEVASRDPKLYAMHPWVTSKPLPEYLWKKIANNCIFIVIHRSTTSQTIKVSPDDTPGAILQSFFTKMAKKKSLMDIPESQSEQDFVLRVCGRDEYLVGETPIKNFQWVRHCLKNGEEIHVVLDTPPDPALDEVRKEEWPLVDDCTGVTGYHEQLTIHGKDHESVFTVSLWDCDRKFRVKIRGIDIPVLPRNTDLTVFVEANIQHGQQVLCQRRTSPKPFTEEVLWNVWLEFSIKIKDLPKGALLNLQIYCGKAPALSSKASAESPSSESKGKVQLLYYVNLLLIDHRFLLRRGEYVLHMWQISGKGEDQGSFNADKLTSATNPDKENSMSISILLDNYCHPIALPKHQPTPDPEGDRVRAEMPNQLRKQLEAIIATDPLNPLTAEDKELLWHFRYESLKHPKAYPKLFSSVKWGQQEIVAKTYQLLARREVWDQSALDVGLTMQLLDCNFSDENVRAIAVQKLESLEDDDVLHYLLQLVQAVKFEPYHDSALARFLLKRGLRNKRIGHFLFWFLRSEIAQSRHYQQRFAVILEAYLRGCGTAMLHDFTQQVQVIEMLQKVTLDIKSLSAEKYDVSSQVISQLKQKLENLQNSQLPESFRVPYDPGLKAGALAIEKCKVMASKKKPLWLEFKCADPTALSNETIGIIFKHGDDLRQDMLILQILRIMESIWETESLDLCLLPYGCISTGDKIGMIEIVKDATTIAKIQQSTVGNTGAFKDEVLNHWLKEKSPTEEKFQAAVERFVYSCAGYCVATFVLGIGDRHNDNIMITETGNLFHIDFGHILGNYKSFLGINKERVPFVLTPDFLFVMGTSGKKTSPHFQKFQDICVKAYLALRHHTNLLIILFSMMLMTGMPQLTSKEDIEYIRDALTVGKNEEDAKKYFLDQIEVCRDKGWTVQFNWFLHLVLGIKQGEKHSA
Method: as §1, §2, §3

T1 sequence (O00329 whole entry, looked up): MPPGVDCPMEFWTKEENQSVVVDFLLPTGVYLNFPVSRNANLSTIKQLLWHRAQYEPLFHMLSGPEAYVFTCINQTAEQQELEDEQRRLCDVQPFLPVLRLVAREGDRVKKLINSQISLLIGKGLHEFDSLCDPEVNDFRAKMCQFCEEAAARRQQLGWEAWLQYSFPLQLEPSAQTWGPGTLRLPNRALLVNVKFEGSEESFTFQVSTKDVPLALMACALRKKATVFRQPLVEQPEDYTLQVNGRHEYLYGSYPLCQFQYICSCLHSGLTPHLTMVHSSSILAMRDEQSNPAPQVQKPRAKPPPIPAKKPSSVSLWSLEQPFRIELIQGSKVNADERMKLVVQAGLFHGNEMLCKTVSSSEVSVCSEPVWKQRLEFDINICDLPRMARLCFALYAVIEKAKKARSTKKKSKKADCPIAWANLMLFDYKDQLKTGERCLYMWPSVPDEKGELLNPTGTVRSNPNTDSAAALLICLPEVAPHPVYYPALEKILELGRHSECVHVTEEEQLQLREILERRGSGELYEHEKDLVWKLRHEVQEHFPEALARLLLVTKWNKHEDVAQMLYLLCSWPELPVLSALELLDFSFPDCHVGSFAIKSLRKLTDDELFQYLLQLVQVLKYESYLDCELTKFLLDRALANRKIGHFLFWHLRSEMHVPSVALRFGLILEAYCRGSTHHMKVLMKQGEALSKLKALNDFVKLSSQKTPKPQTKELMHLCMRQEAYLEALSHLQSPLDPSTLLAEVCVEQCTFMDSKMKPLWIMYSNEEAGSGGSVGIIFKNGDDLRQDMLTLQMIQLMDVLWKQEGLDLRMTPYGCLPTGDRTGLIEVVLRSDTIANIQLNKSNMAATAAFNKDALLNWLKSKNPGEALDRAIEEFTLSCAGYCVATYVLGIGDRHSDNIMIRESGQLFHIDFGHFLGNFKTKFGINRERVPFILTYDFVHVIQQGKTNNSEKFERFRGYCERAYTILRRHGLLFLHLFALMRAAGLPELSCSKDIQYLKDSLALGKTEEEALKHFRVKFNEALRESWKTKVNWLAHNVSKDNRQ

For `CC(C)(C)N1CCN(Cc2cc3nc(-n4c(C(F)(F)F)nc5ccccc54)cc(N4CCOCC4)n3n2)CC1` [Compound 9, 1-{2-[(4-tert-butylpiperazin-1-yl)methyl]-7-(morpholin-4-yl)pyrazolo[1,5-a]pyrimidin-5-yl}-2-(trifluoromethyl)-1H-benzimidazole], the IC50 [1] was 0.907 µM, the IC50 [2] was 135 µM and the “Fold Selectivity γ/δ” value [2] was 149.

In the case of `OCC1CCCN1Cc1cc2nc(-n3c(C(F)F)nc4ccccc43)cc(N3CCOCC3)n2n1` (stereo not drawn) [Compound 19, [1-({5-[2-(difluoromethyl)-1H-1,3-benzimidazol-1-yl]-7-(morpholin-4-yl)pyrazolo[1,5-a]pyrimidin-2-yl}methyl)pyrrolidin-2-yl]methanol], the IC50 [1] is reported as 1.07 µM, the IC50 [2] is reported as 4.47 µM and the “Fold Selectivity γ/δ” value [2] is reported as 4.2.

`NC1CCN(Cc2cc3nc(-n4c(C(F)F)nc5ccccc54)cc(N4CCOCC4)n3n2)C1` (stereo not drawn) [Compound 20, 1-({5-[2-(difluoromethyl)-1H-1,3-benzimidazol-1-yl]-7-(morpholin-4-yl)pyrazolo[1,5-a]pyrimidin-2-yl}methyl)pyrrolidin-3-amine] was tested, and the IC50 [1] was 1.89 µM, the IC50 [2] was 22.1 µM and the “Fold Selectivity γ/δ” value [2] was 12.

`O[C@H]1CCN(Cc2cc3nc(-n4c(C(F)F)nc5ccccc54)cc(N4CCOCC4)n3n2)C1` [Compound 21, (3S)-1-({5-[2-(difluoromethyl)-1H-1,3-benzimidazol-1-yl]-7-(morpholin-4-yl)pyrazolo[1,5-a]pyrimidin-2-yl}methyl)pyrrolidin-3-ol] was tested, and the IC50 [1] was 0.956 µM, the IC50 [2] was 10.9 µM and the “Fold Selectivity γ/δ” value [2] was 11.

With `O[C@@H]1CCN(Cc2cc3nc(-n4c(C(F)F)nc5ccccc54)cc(N4CCOCC4)n3n2)C1` [Compound 22, (3R)-1-({5-[2-(difluoromethyl)-1H-1,3-benzimidazol-1-yl]-7-(morpholin-4-yl)pyrazolo[1,5-a]pyrimidin-2-yl}methyl)pyrrolidin-3-ol] the IC50 [1] was 0.979 µM, the IC50 [2] was 8.42 µM and the “Fold Selectivity γ/δ” value [2] was 8.6.

`FC(F)c1nc2ccccc2n1-c1cc(N2CCOCC2)n2nc(CN3CCOCC3)cc2n1` [Compound 23, 2-(difluoromethyl)-1-[7-(morpholin-4-yl)-2-(morpholin-4-ylmethyl)pyrazolo[1,5-a]pyrimidin-5-yl]-1H-1,3-benzimidazole] was tested, and the IC50 [1] was 0.135 µM, the IC50 [2] was 1.38 µM and the “Fold Selectivity γ/δ” value [2] was 10.

With `C[C@H]1COCCN1Cc1cc2nc(-n3c(C(F)F)nc4ccccc43)cc(N3CCOCC3)n2n1` [Compound 24, 2-(difluoromethyl)-1-(2-{[(3S)-3-methylmorpholin-4-yl]methyl}-7-(morpholin-4-yl)pyrazolo[1,5-a]pyrimidin-5-yl)-1H-1,3-benzimidazole] the IC50 [1] was 0.254 µM, the IC50 [2] was 0.588 µM and the “Fold Selectivity γ/δ” value [2] was 2.3.

For `C[C@@H]1COCCN1Cc1cc2nc(-n3c(C(F)F)nc4ccccc43)cc(N3CCOCC3)n2n1` [Compound 25, 2-(difluoromethyl)-1-(2-{[(3R)-3-methylmorpholin-4-yl]methyl}-7-(morpholin-4-yl)pyrazolo[1,5-a]pyrimidin-5-yl)-1H-1,3-benzimidazole], the IC50 [1] was 0.647 µM, the IC50 [2] was 1.97 µM and the “Fold Selectivity γ/δ” value [2] was 3.0.

For `CCOC(=O)C1CCCN(Cc2cc3nc(-n4c(C(F)F)nc5ccccc54)cc(N4CCOCC4)n3n2)C1` (stereo not drawn) [Compound 26, 1-({5-[2-(difluoromethyl)-1H-1,3-benzodiazol-1-yl]-7-(morpholin-4-yl)pyrazolo[1,5-a]pyrimidin-2-yl}methyl)piperidine-3-carboxylate], the IC50 [1] was 0.203 µM, the IC50 [2] was 4.28 µM and the “Fold Selectivity γ/δ” value [2] was 21.

With `FC(F)c1nc2ccccc2n1-c1cc(N2CCOCC2)n2nc(CNC3CCOCC3)cc2n1` [Compound 27, N-({5-[2-(difluoromethyl)-1H-1,3-benzimidazol-1-yl]-7-(morpholin-4-yl)pyrazolo[1,5-a]pyrimidin-2-yl}methyl)oxan-4-amine] the IC50 [1] was 1.81 µM, the IC50 [2] was 20.5 µM and the “Fold Selectivity γ/δ” value [2] was 11.

For `FC(F)c1nc2ccccc2n1-c1cc(N2CCOCC2)n2nc(CN3CCC(F)(F)CC3)cc2n1` [Compound 28, 2-(difluoromethyl)-1-{2-[(4,4-difluoropiperidin-1-yl)methyl]-7-(morpholin-4-yl)pyrazolo[1,5-a]pyrimidin-5-yl}-1H-1,3-benzimidazole], the IC50 [1] was 0.443 µM, the IC50 [2] was 1.71 µM and the “Fold Selectivity γ/δ” value [2] was 3.9.

In the case of `NC(=O)C1CCN(Cc2cc3nc(-n4c(C(F)F)nc5ccccc54)cc(N4CCOCC4)n3n2)CC1` [Compound 29, 1-({5-[2-(difluoromethyl)-1H-1,3-benzimidazol-1-yl]-7-(morpholin-4-yl)pyrazolo[1,5-a]pyrimidin-2-yl}methyl)piperidine-4-carboxamide], the IC50 [1] is reported as 0.24 µM, the IC50 [2] is reported as 1.86 µM and the “Fold Selectivity γ/δ” value [2] is reported as 7.7.

In the case of `CC1(O)CCN(Cc2cc3nc(-n4c(C(F)F)nc5ccccc54)cc(N4CCOCC4)n3n2)CC1` [Compound 30, 1-({5-[2-(difluoromethyl)-1H-1,3-benzimidazol-1-yl]-7-(morpholin-4-yl)pyrazolo[1,5-a]pyrimidin-2-yl}methyl)-4-methylpiperidin-4-ol], the IC50 [1] is reported as 0.615 µM, the IC50 [2] is reported as 7.55 µM and the “Fold Selectivity γ/δ” value [2] is reported as 12.

For `OCC1CCN(Cc2cc3nc(-n4c(C(F)F)nc5ccccc54)cc(N4CCOCC4)n3n2)CC1` [Compound 31, [1-({5-[2-(difluoromethyl)-1H-1,3-benzimidazol-1-yl]-7-(morpholin-4-yl)pyrazolo[1,5-a]pyrimidin-2-yl}methyl)piperidin-4-yl]methanol], the IC50 [1] was 0.593 µM, the IC50 [2] was 8.32 µM and the “Fold Selectivity γ/δ” value [2] was 14.

With `N#CC1CCN(Cc2cc3nc(-n4c(C(F)F)nc5ccccc54)cc(N4CCOCC4)n3n2)CC1` [Compound 32, 1-({5-[2-(difluoromethyl)-1H-1,3-benzimidazol-1-yl]-7-(morpholin-4-yl)pyrazolo[1,5-a]pyrimidin-2-yl}methyl)piperidine-4-carbonitrile] the IC50 [1] was 0.192 µM, the IC50 [2] was 3.15 µM and the “Fold Selectivity γ/δ” value [2] was 16.

In the case of `FC(F)c1nc2ccccc2n1-c1cc(N2CCOCC2)n2nc(CN3CCC(N4CCOCC4)CC3)cc2n1` [Compound 33, 2-(difluoromethyl)-1-[7-(morpholin-4-yl)-2-{[4-(morpholin-4-yl)piperidin-1-yl]methyl}pyrazolo[1,5-a]pyrimidin-5-yl]-1H-1,3-benzimidazole], the IC50 [1] is reported as 0.276 µM, the IC50 [2] is reported as 4.8 µM and the “Fold Selectivity γ/δ” value [2] is reported as 17.

In the case of `OC1CCN(Cc2cc3nc(-n4c(C(F)F)nc5ccccc54)cc(N4CCOCC4)n3n2)CC1` [Compound 34, 1-({5-[2-(difluoromethyl)-1H-1,3-benzimidazol-1-yl]-7-(morpholin-4-yl)pyrazolo[1,5-a]pyrimidin-2-yl}methyl)piperidin-4-ol], the IC50 [1] is reported as 0.561 µM, the IC50 [2] is reported as 4.32 µM and the “Fold Selectivity γ/δ” value [2] is reported as 7.7.

`CC(=O)NC1CCN(Cc2cc3nc(-n4c(C(F)F)nc5ccccc54)cc(N4CCOCC4)n3n2)CC1` [Compound 35, N-[1-({5-[2-(difluoromethyl)-1H-1,3-benzimidazol-1-yl]-7-(morpholin-4-yl)pyrazolo[1,5-a]pyrimidin-2-yl}methyl)piperidin-4-yl]acetamide] was tested, and the IC50 [1] was 0.445 µM, the IC50 [2] was 1.5 µM and the “Fold Selectivity γ/δ” value [2] was 3.4.

With `CNC(=O)CN1CCN(Cc2cc3nc(-n4c(C(F)F)nc5ccccc54)cc(N4CCOCC4)n3n2)CC1` [Compound 36, 2-[4-({5-[2-(difluoromethyl)-1H-1,3-benzimidazol-1-yl]-7-(morpholin-4-yl)pyrazolo[1,5-a]pyrimidin-2-yl}methyl)piperazin-1-yl]-N-methylacetamide] the IC50 [1] was 0.063 µM, the IC50 [2] was 1.25 µM and the “Fold Selectivity γ/δ” value [2] was 20.

For `CN1CCN(Cc2cc3nc(-n4c(C(F)F)nc5ccccc54)cc(N4CCOCC4)n3n2)CC1` [Compound 37, 2-(difluoromethyl)-1-{2-[(4-methylpiperazin-1-yl)methyl]-7-(morpholin-4-yl)pyrazolo[1,5-a]pyrimidin-5-yl}-1H-1,3-benzimidazole], the IC50 [1] was 0.351 µM, the IC50 [2] was 17.7 µM and the “Fold Selectivity γ/δ” value [2] was 50.

With `CC(C)N1CCN(Cc2cc3nc(-n4c(C(F)F)nc5ccccc54)cc(N4CCOCC4)n3n2)CC1` [Compound 38, 2-(difluoromethyl)-1-[7-(morpholin-4-yl)-2-{[4-(propan-2-yl)piperazin-1-yl]methyl}pyrazolo[1,5-a]pyrimidin-5-yl]-1H-1,3-benzimidazole] the IC50 [1] was 0.038 µM, the IC50 [2] was 13.3 µM and the “Fold Selectivity γ/δ” value [2] was 351.

With `CC(C)(C)N1CCN(C(=O)c2cc3nc(-n4c(C(F)F)nc5ccccc54)cc(N4CCOCC4)n3n2)CC1` [Compound 40, 1-[2-(4-tert-butylpiperazine-1-carbonyl)-7-(morpholin-4-yl)pyrazolo[1,5-a]pyrimidin-5-yl]-2-(difluoromethyl)-1H-1,3-benzimidazole] the IC50 [1] was 0.084 µM, the IC50 [2] was 48.8 µM and the “Fold Selectivity γ/δ” value [2] was 581.

With `CC(C)(O)C1CCN(C(=O)c2cc3nc(-n4c(C(F)F)nc5ccccc54)cc(N4CCOCC4)n3n2)CC1` [Compound 41] the IC50 [1] was 0.101 µM, the IC50 [2] was 2.48 µM and the “Fold Selectivity γ/δ” value [2] was 25.

`CC(C)(C(N)=O)N1CCN(C(=O)c2cc3nc(-n4c(C(F)F)nc5ccccc54)cc(N4CCOCC4)n3n2)CC1` [Compound 42, 2-(4-{5-[2-(difluoromethyl)-1H-1,3-benzimidazol-1-yl]-7-(morpholin-4-yl)pyrazolo[1,5-a]pyrimidine-2-carbonyl}piperazin-1-yl)-2-methylpropanamide] was tested, and the IC50 [1] was 0.074 µM, the IC50 [2] was 3.59 µM and the “Fold Selectivity γ/δ” value [2] was 48.

Reference: PMC9415947 (Pharmaceuticals, 2022)
